From article PMC6199744, “Development of Chemical Proteomics for the Folateome and Analysis of the Kinetoplastid Folateome” (ACS Infectious Diseases, 2018)
Read-outs that look alike come from different tables or passages of the source.

Columns and labels:
Assay type in all cases: binding
[1] = molecular target: T1, HeLa cell extract proteins (Homo sapiens, UniProt Q6P1J9)
T1 construct: endogenous in cells; host or cells: HeLa cell extract

[2] = molecular target: T2, HeLa cell extract proteins (Homo sapiens, UniProt P40227)
T2 construct: endogenous in cells; host or cells: HeLa cell extract

[3] = molecular target: T3, HeLa cell extract proteins (Homo sapiens, UniProt P81605)
T3 construct: endogenous in cells; host or cells: HeLa cell extract
T3 sequence (P81605 20-110): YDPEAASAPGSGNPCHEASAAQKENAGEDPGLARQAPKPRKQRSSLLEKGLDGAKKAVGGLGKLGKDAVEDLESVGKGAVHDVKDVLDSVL

[4] = molecular target: T4, HeLa cell extract proteins (Homo sapiens, UniProt Q8NFH4)
T4 construct: endogenous in cells; host or cells: HeLa cell extract
T4 sequence (Q8NFH4 1-326): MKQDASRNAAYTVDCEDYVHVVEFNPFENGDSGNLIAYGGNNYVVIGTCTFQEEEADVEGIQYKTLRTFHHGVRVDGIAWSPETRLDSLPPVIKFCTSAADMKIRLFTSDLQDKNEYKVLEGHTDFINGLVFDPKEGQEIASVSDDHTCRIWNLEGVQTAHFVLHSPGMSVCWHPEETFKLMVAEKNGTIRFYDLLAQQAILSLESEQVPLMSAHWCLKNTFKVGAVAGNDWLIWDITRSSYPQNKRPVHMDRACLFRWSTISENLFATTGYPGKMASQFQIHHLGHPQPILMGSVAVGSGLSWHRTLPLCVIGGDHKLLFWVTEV

[5] = molecular target: T5, HeLa cell extract proteins (Homo sapiens, UniProt P48651)
T5 construct: endogenous in cells; host or cells: HeLa cell extract

[6] = molecular target: T6, HeLa cell extract proteins (Homo sapiens, UniProt Q13315)
T6 construct: endogenous in cells; host or cells: HeLa cell extract

[7] = molecular target: T7, HeLa cell extract proteins (Homo sapiens, UniProt P35573)
T7 construct: endogenous in cells; host or cells: HeLa cell extract

[8] = molecular target: T8, HeLa cell extract proteins (Homo sapiens, UniProt P47897)
T8 construct: endogenous in cells; host or cells: HeLa cell extract
T8 sequence (P47897 1-775): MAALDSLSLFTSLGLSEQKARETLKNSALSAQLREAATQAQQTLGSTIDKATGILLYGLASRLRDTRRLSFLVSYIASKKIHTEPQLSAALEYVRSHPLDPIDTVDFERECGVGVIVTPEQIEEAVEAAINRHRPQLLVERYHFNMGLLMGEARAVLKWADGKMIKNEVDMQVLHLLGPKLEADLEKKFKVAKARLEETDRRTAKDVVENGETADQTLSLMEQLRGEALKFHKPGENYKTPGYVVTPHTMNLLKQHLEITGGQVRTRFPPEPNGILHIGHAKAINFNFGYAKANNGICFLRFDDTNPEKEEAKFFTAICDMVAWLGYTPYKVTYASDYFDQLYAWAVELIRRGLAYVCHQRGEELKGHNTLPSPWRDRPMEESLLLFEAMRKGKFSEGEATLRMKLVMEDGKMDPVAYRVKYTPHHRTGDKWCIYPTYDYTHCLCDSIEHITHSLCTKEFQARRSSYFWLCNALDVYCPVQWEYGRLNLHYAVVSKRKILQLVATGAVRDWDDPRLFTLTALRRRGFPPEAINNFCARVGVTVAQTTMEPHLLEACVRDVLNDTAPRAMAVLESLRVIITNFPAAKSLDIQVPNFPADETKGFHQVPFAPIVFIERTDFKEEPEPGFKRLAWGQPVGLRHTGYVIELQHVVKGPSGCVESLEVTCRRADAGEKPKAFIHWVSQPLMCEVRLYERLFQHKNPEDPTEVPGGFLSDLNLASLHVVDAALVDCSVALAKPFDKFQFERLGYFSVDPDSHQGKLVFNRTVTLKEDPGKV

[9] = molecular target: T9, HeLa cell extract proteins (Homo sapiens, UniProt Q96JN8)
T9 construct: endogenous in cells; host or cells: HeLa cell extract

[10] = molecular target: T10, HeLa cell extract proteins (Homo sapiens, UniProt P62820)
T10 construct: endogenous in cells; host or cells: HeLa cell extract

[11] = molecular target: T11, HeLa cell extract proteins (Homo sapiens, UniProt P46940)
T11 construct: endogenous in cells; host or cells: HeLa cell extract

[12] = molecular target: T12, HeLa cell extract proteins (Homo sapiens, UniProt P49189)
T12 construct: endogenous in cells; host or cells: HeLa cell extract

[13] = molecular target: T13, HeLa cell extract proteins (Homo sapiens, UniProt P61457)
T13 construct: endogenous in cells; host or cells: HeLa cell extract
T13 sequence (P61457 1-104): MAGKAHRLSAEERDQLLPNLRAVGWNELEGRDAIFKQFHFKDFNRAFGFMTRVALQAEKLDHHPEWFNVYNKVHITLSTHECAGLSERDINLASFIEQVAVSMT

[14] = molecular target: T14, HeLa cell extract proteins (Homo sapiens, UniProt P20073)
T14 construct: endogenous in cells; host or cells: HeLa cell extract
T14 sequence (P20073 1-488): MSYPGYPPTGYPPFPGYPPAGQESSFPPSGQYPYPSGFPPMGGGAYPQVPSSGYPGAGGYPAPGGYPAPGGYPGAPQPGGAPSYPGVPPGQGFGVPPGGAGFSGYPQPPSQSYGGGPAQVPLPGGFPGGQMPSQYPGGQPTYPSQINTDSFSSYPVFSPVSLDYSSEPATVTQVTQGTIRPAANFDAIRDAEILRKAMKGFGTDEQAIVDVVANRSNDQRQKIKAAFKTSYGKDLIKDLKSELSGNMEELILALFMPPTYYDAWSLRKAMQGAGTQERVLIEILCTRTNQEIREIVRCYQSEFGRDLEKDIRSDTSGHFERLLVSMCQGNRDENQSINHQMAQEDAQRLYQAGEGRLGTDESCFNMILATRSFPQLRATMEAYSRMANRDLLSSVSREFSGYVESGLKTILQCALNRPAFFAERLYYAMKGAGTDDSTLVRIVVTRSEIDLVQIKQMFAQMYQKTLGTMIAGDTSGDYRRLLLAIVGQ

[15] = HeLa, protein AGL (PUTATIVE UNCHA[…] AGL (FRAGMENT))

T7 sequence (P35573 whole entry): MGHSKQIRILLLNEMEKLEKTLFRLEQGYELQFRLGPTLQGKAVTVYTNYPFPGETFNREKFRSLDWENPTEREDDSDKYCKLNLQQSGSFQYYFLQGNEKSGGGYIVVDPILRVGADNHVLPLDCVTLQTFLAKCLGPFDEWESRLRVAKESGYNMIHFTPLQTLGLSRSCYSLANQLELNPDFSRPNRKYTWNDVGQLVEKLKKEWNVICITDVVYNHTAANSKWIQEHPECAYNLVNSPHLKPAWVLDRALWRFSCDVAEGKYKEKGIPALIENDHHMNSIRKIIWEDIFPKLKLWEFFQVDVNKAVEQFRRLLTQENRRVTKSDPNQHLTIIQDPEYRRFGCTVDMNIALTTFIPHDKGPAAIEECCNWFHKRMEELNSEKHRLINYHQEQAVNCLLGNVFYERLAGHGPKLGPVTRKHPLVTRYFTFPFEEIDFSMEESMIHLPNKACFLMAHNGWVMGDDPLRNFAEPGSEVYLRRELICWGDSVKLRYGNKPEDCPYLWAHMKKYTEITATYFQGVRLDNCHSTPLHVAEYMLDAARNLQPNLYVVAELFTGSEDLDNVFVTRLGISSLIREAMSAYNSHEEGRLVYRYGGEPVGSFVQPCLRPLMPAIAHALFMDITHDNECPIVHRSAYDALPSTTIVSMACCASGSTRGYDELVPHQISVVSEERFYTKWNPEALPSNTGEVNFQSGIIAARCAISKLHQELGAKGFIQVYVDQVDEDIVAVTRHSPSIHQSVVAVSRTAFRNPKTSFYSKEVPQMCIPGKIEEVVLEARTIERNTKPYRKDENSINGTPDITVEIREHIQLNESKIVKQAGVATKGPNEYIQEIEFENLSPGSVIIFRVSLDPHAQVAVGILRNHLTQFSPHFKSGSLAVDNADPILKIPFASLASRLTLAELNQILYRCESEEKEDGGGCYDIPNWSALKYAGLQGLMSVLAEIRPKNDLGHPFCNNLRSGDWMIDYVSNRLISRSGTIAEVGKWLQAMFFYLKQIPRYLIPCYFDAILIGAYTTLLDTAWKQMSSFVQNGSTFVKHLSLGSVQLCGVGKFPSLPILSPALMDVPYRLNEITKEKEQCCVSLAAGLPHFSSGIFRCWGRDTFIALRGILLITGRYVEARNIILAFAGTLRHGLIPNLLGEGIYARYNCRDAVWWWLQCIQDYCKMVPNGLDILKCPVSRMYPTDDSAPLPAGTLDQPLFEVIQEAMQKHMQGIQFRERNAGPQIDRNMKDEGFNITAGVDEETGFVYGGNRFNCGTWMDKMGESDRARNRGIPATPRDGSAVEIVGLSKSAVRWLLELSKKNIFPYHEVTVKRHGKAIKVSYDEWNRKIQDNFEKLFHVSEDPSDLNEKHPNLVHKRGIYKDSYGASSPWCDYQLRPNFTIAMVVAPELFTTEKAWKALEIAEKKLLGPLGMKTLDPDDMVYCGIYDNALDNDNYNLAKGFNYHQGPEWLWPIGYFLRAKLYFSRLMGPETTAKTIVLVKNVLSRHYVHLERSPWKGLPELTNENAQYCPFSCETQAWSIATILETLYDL
T9 sequence (Q96JN8 whole entry): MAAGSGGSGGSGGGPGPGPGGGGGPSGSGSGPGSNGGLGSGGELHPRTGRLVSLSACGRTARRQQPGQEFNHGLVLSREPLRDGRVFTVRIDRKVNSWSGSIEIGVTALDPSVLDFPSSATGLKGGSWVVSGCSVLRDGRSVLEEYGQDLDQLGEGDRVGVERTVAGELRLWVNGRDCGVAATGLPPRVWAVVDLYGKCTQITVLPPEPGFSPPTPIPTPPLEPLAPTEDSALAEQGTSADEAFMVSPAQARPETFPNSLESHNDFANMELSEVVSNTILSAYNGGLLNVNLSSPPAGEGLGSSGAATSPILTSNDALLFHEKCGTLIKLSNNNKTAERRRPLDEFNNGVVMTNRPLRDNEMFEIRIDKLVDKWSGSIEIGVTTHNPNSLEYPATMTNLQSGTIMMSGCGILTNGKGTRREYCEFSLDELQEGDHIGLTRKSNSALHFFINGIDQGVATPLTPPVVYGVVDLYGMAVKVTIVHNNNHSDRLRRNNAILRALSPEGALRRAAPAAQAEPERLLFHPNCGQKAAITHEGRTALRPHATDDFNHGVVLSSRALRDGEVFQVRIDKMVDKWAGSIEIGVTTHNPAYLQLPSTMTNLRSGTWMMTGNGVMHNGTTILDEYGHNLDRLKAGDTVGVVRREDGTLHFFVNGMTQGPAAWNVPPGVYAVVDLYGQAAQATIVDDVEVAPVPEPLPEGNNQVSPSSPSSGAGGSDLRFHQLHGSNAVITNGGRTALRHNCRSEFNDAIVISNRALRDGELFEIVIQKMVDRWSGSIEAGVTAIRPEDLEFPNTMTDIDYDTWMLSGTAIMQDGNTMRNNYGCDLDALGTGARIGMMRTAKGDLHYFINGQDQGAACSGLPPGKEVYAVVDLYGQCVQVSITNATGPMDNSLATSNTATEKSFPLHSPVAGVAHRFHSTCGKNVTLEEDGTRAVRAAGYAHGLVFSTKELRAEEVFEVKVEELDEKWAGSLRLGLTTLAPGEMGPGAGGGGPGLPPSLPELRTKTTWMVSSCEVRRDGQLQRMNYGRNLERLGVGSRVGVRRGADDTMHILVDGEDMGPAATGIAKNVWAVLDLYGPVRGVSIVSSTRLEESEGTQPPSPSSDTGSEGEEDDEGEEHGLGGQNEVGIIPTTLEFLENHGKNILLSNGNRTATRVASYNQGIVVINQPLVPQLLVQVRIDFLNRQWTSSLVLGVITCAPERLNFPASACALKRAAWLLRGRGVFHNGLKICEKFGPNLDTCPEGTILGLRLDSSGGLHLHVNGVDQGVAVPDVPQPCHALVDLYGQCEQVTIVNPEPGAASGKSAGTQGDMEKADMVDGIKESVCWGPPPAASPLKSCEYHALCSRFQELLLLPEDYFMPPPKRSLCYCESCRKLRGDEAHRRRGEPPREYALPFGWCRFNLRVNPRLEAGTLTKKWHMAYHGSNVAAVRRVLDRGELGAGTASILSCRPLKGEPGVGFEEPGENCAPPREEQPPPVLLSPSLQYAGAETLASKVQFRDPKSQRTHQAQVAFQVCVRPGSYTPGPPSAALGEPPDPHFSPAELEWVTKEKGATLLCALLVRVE
T10 sequence (P62820 whole entry): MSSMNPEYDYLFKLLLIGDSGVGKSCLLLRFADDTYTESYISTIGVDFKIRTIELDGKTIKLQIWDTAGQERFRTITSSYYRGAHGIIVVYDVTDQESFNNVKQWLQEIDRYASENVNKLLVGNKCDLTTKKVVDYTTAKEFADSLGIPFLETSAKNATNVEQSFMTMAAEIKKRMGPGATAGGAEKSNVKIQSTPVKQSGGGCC
T11 sequence (P46940 whole entry): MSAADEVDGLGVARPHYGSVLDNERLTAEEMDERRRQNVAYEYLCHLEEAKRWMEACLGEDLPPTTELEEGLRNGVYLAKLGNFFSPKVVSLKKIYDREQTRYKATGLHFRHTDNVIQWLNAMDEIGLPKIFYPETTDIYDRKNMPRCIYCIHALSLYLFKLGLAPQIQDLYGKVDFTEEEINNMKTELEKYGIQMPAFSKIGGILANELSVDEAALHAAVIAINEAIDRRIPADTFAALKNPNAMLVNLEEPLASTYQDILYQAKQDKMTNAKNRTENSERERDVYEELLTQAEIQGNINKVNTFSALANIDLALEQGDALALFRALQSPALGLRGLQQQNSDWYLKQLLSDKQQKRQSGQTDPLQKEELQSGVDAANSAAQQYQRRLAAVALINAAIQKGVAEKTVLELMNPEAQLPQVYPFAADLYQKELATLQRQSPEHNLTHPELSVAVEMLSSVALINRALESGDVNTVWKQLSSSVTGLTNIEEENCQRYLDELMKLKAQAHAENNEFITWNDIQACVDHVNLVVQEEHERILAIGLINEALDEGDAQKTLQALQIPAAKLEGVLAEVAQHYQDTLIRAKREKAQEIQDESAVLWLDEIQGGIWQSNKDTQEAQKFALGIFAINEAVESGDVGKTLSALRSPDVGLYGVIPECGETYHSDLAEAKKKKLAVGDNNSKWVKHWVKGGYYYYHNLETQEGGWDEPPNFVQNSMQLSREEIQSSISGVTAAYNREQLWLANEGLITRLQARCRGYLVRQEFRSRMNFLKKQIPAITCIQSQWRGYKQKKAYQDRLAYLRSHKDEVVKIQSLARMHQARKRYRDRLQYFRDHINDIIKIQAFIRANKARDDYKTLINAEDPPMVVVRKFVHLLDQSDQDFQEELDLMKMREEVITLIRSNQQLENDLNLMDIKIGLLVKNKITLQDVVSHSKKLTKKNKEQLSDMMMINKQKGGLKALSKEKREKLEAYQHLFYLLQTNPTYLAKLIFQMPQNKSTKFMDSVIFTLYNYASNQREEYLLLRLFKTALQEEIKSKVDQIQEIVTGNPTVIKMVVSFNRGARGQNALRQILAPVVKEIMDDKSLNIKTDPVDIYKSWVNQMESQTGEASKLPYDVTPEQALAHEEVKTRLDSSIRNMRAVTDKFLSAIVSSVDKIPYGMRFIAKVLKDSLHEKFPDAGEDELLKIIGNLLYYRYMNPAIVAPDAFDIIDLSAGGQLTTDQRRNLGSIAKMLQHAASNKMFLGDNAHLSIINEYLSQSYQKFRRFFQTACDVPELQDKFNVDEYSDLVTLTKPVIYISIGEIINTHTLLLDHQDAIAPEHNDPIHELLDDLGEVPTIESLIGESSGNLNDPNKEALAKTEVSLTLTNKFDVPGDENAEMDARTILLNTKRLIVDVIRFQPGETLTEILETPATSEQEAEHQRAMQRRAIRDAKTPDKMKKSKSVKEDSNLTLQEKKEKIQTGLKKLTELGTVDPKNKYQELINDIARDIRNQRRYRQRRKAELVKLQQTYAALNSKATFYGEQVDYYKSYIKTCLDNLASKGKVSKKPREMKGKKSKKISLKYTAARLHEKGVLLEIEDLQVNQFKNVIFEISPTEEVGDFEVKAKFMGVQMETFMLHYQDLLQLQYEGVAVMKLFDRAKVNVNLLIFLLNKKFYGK

| Structure (SMILES) | fold changes relative to vehicle control ([1]; protein CDC73, HeLa) | fold changes relative to vehicle control ([2]; protein CCT6A, HeLa) | fold changes relative to vehicle control ([3]; protein DCD, HeLa) | fold changes relative to vehicle control ([4]; captured protein NUP37, HeLa) | fold changes relative to vehicle control ([5]; captured protein PTDSS1, HeLa) | fold changes relative to vehicle control ([6]; HeLa, protein ATM) | fold changes relative to vehicle control ([7]; HeLa, protein AGL) | fold changes relative to vehicle control ([8]; HeLa, protein QARS) | fold changes relative to vehicle control ([9]; protein KIAA1787, HeLa) | fold changes relative to vehicle control ([2]; HeLa, protein CCT6A) | fold changes relative to vehicle control ([4]; HeLa, protein NUP37) | fold changes relative to vehicle control ([5]; HeLa, protein PTDSS1) | fold changes relative to vehicle control [7, 15] | fold changes relative to vehicle control ([8]; HeLa, captured protein QARS) | fold changes relative to vehicle control ([9]; HeLa, protein KIAA1787) | fold changes relative to vehicle control ([10]; HeLa, protein RAB1A) | fold changes relative to vehicle control ([11]; HeLa, protein IQGAP1) | fold changes relative to vehicle control ([12]; HeLa, captured protein ALDH9A1) | fold changes relative to vehicle control ([13]; HeLa, captured protein PCBD1) | fold changes relative to vehicle control ([14]; HeLa, protein ANXA7) | further results |
| --- | --- | --- | --- | --- | --- | --- | --- | --- | --- | --- | --- | --- | --- | --- | --- | --- | --- | --- | --- | --- | --- |
| CCCCCCOc1cccc(Cc2cnc(N)nc2N)c1 [compound 2] | 1.08 | 2.04 | 1.52 | 0.98 | 1.03 | 1.01 | 1.08 | 1.16 | 0.98 | – | – | – | – | – | – | – | – | – | – | – | fold changes relative to vehicle control ([10]; captured protein RAB1A, HeLa): 1.19; fold changes relative to vehicle control ([11]; protein IQGAP1, HeLa): 1.69; fold changes relative to vehicle control ([12]; protein ALDH9A1, HeLa): 1.01; fold changes relative to vehicle control ([13]; captured protein PCBD1, HeLa): 0.96; fold changes relative to vehicle control ([14]; protein ANXA7, HeLa): 1.58 |
| NCCOCCOCC(=O)Nc1nc2ncc(CNc3ccc(C(=O)NC(CCC(=O)O)C(=O)O)cc3)nc2c(=O)[nH]1 (stereo not drawn) [compound 6] | 0.88 | – | 0.86 | – | – | 1.1 | – | – | – | 1.19 | 0.9 | 0.89 | 1.09 | 0.95 | 1.11 | 1.21 | 1.25 | 0.92 | 1.58 | 1.13 | – |
| CCCCCCOc1ccc(Cc2cnc(N)nc2N)cc1 [compound 1] | 1.18 | 1.39 | 9.15 | 1.14 | 0.68 | 1.03 | 1.05 | 0.99 | 1.03 | – | – | – | – | – | – | – | – | – | – | – | fold changes relative to vehicle control ([10]; captured protein RAB1A, HeLa): 0.74; fold changes relative to vehicle control ([11]; protein IQGAP1, HeLa): 0.99; fold changes relative to vehicle control ([12]; protein ALDH9A1, HeLa): 1; fold changes relative to vehicle control ([13]; captured protein PCBD1, HeLa): 1.01; fold changes relative to vehicle control ([14]; protein ANXA7, HeLa): 1.06 |
| Nc1nc2c(c(=O)[nH]1)N(C=O)C(CNc1ccc(C(=O)N[C@@H](CCC(=O)O)C(=O)O)cc1)CN2 (stereo partly drawn) [LEU, leucovorin] | 0.81 | – | 0.78 | – | – | 0.92 | – | – | – | 1.01 | 0.86 | 0.84 | 1.19 | 0.97 | 1.16 | 1.2 | 1.02 | 0.9 | 1.4 | 0.98 | – |
| NCCCNc1ccc(C(=O)NC(CCC(=O)O)C(=O)O)cc1 (stereo not drawn) [compound 7] | 0.76 | – | 1.23 | – | – | 1.09 | – | – | – | 1.31 | 0.96 | 0.96 | 1.17 | 0.92 | 1.21 | 1.07 | 1.18 | 0.98 | 1.48 | 0.83 | – |
| Nc1nc2[nH]cc(CCc3ccc(C(=O)N[C@@H](CCC(=O)O)C(=O)O)cc3)c2c(=O)[nH]1 [PTX, pemetrexed] | – | – | – | – | – | – | – | – | – | – | – | – | – | – | – | – | – | – | – | – | fold changes relative to vehicle control [1]: 0.76; fold changes relative to vehicle control [2]: 1.11; fold changes relative to vehicle control [3]: 1.53; fold changes relative to vehicle control [4]: 0.91; fold changes relative to vehicle control [5]: 0.8; fold changes relative to vehicle control [6]: 1.04; fold changes relative to vehicle control [7]: 1.1; fold changes relative to vehicle control [8]: 0.9; fold changes relative to vehicle control [9]: 1.07; fold changes relative to vehicle control [10]: 1.17; fold changes relative to vehicle control [11]: 1.08; fold changes relative to vehicle control [12]: 1.02; fold changes relative to vehicle control [13]: 1.68; fold changes relative to vehicle control [14]: 1.02 |
